Values belong to the compound of their own block, whether it stands above or below them.
Tests used:
[1] = tested on: senescent fibroblasts (SnCs), IMR90 cells; experiment: Senolytic activity: killing irradiated senescent IMR90 fibroblasts vs replicating or quiescent fibroblasts (CellTiter-Glo); assay type: cell-based, human; conditions: for Best SI: specificity for senescent cells vs replicating or quiescent fibroblasts, 1.0 = non-specific; for senolytic activity, potency: result in words
Source text: Human fibroblast IMR90 cells can be obtained from the American Type Culture Collection (ATCC®) with the designation CCL-186. The cells are maintained at <75% confluency in DMEM containing FBS and Pen/Strep in an atmosphere of 3% O2, 10% CO2, and ˜95% humidity. The cells are divided into three groups: irradiated cells (cultured for 14 days after irradiation prior to use), proliferating normal cells (cultured at low density for one day prior to use), and quiescent cells (cultured at high density for four day prior to use).
On day 0, the irradiated cells are prepared as follows. IMR90 cells are washed, placed in T175 flasks at a density of 50,000 cells per mL, and irradiated at 10-15 Gy. Following irradiation, the cells are plated at 100 μL in 96-well plates. On days 1, 3, 6, 10, and 13, the medium in each well is aspirated and replaced with fresh medium.
On day 10, the quiescent healthy cells are prepared as follows. IMR90 cells are washed, combined with 3 mL of TrypLE trypsin-containing reagent (Thermofisher Scientific, Waltham, Mass.) and cultured for 5 min until the cells have rounded up and begin to detach from the plate. Cells are dispersed, counted, and prepared in medium at a concentration of 50,000 cells per mL. 100 μL of the cells is plated in each well of a 96-well plate. Medium is changed on day 13.
On day 13, the proliferating healthy cell population is prepared as follows. Healthy IMR90 cells are washed, combined with 3 mL of TrypLE and cultured for 5 minutes until the cells have rounded up and begin to detach from the plate. Cells are dispersed, counted, and prepared in medium at a concentration of 25,000 cells per mL. 100 μL of the cells is plated in each well of a 96-well plate.
On day 14, test Bcl-2 inhibitors or MDM2 inhibitors are combined with the cells as follows. A DMSO dilution series of each test compound is prepared at 200 times the final desired concentration in a 96-well PCR plate. Immediately before use, the DMSO stocks are diluted 1:200 into prewarmed complete medium. Medium is aspirated from the cells in each well, and 100 μL/well of the compound containing medium is added.
Candidate senolytic agents for testing are cultured with the cells for 6 days, replacing the culture medium with fresh medium and the same compound concentration on day 17. Bcl-2 inhibitors like 001967 are cultured with the cells for 3 days. The assay system uses the properties of a thermostable luciferase to enable reaction conditions that generate a stable luminescent signal while simultaneously inhibiting endogenous ATPase released during cell lysis. At the end of the culture period, 100 μL of CellTiter-Glo® reagent (Promega Corp., Madison, Wis.) is added to each of the wells. The cell plates are placed for 30 seconds on an orbital shaker, and luminescence is measured.
Furthermore, even if the compound is potent, it would not be suitable for use as a therapeutic unless it preferentially kills senescent cells with a high degree of selectivity. Accordingly, compounds in the library showing high Bcl binding affinity were further screened for their ability to kill irradiated fibroblasts, in comparison with replicating fibroblasts or fibroblasts that were quiescent (due to confluence) but not senescent.

Bcl isoforms = experiment: Binding affinity for the Bcl isoforms; conditions: result in words
Source text: The ability of candidate compounds to inhibit Bcl-2 and Bcl-xL activity can be measured on the molecular level by direct binding. This assay uses a homogenous assay technology based on oxygen channeling that is marketed by PerkinElmer Inc., Waltham, Mass.: see Eglin et al., Current Chemical Genomics, 2008, 1, 2-10. The test compound is combined with the target Bcl protein and a peptide representing the corresponding cognate ligand, labeled with biotin. The mixture is then combined with streptavidin bearing luminescent donor beads and luminescent acceptor beads, which proportionally reduces luminescence if the compound has inhibited the peptide from binding to the Bcl protein.
Bcl-2, Bcl-xL and Bcl-w are available from Sigma-Aldrich Co., St. Louis, Mo. Biotinylated BIM peptide (ligand for Bcl-2) and BAD peptide (ligand for Bcl-xL) are described in US 2016/0038503 A1. AlphaScreen® Streptavidin donor beads and Anti-6×His AlphaLISA® acceptor beads are available from PerkinElmer.
To conduct the assay, a 1:4 dilution series of the compound is prepared in DMSO, and then diluted 1:100 in assay buffer. In a 96-well PCR plate, the following are combined in order: 10 μL peptide (120 nM BIM or […]), 10 μL test compound, and 10 μL Bcl protein (0.8 nM Bcl-2/W or 0.4 nM Bcl-XL). The assay plate is incubated in the dark at room temperature for 24 h. The next day, donor beads and acceptor beads are combined, and 5 μL is added to each well. After incubating in the dark for 30 minute, luminescence is measured using a plate reader, and the affinity or degree of inhibition by each test compound is determined.

Structure (SMILES): Cc1c(C(=O)O)c(-c2cccc(N3CCN(c4ccc(NS(=O)(=O)c5ccc(N[C@H](CCN6CCC(O)CC6)CSc6ccccc6)c(S(=O)(=O)C(F)(F)F)c5)cc4)CC3)c2)c(-c2ccc(Cl)cc2)n1C(C)C [BM-962]
Best SI [1]: 18.5

Structure (SMILES): CCn1c(C)c(C(=O)O)c(-c2cccc(N3CCN(c4ccc(NS(=O)(=O)c5ccc(N[C@H](CCN6CCC(O)CC6)CSc6ccccc6)c(S(=O)(=O)C(F)(F)F)c5)cc4)CC3)c2)c1-c1ccc(Cl)cc1 [BM-957]
Best SI [1]: 11.7

Structure (SMILES): CCn1c(C)c(S(C)(=O)=O)c(-c2cc(F)cc(N3CCN(c4ccc(NS(=O)(=O)c5ccc(N[C@H](CCN6CCC(O)CC6)CSc6ccccc6)c(S(=O)(=O)C(F)(F)F)c5)cc4)CC3)c2)c1-c1ccc(F)cc1 [BM-1192]
Best SI [1]: 60.0

Now from value to compound, other results behind:

binding affinities (Ki) for the Bcl isoforms (Bcl isoforms): nanomole to picomole range
Structure (SMILES): Cc1c(S(C)(=O)=O)c(-c2cc(F)cc(N3CCN(c4ccc(NS(=O)(=O)c5ccc(N[C@H](CCN6CCC(C(=O)O)CC6)CSc6ccccc6)c(S(=O)(=O)C(F)(F)F)c5)cc4)CC3)c2)c(-c2ccc(Cl)cc2)n1C(C)C [BM-1244]
Best SI [1]: 66.7

binding affinities (Ki) for the Bcl isoforms (Bcl isoforms): nanomole to picomole range
Structure (SMILES): Cc1c(S(C)(=O)=O)c(-c2cc(F)cc(N3CCN(c4ccc(NS(=O)(=O)c5ccc(N[C@H](CCN6CCC(O)CC6)CSc6ccccc6)c(S(=O)(=O)C(F)(F)F)c5)cc4)CC3)c2)c(-c2ccc(Cl)cc2)n1C(C)C [BM-1197]
senolytic activity, potency [1]: potent in the nanomole range
Best SI [1]: 366.7

binding affinities (Ki) for the Bcl isoforms (Bcl isoforms): nanomole to picomole range
Structure (SMILES): Cc1c(S(C)(=O)=O)c(-c2cc(F)cc(N3CCN(c4ccc(NS(=O)(=O)c5ccc(N[C@H](CCN6CCC(O)CC6)CSc6ccccc6)c(S(=O)(=O)C(F)(F)F)c5)cc4)CC3)c2)c(-c2ccc(F)cc2)n1C(C)C [BM-1195]
senolytic activity, potency [1]: potent in the nanomole range
Best SI [1]: 128.7
